Data: PMC10248867, “Receptor-like cytoplasmic kinase ScRIPK in sugarcane regulates disease resistance and drought tolerance in Arabidopsis” (Frontiers in Plant Science, 2023)

What was measured:
Assay in all cases: X-ray crystal structure, […] A
Assay type in all cases: binding
[1] = target: T1, ScRIPK-KD (ScRIPK kinase domain) (Saccharum hybrid cultivar, UniProt A0ACD6BAX3, K58R); conditions: crystallised in 0.1 M HEPES pH 7.5, 4.3 M sodium chloride, 291 K; active site
T1 construct: gene NCGR_LOCUS634; kinase domain 72-378 of 425 aa; PRSF-duet vector, Ni-NTA purified from E. coli BL21(DE3); wild type autophosphorylated at T250, S253, T254; one kinase domain per asymmetric unit
T1 sequence (A0ACD6BAX3 entry or part of it K58R): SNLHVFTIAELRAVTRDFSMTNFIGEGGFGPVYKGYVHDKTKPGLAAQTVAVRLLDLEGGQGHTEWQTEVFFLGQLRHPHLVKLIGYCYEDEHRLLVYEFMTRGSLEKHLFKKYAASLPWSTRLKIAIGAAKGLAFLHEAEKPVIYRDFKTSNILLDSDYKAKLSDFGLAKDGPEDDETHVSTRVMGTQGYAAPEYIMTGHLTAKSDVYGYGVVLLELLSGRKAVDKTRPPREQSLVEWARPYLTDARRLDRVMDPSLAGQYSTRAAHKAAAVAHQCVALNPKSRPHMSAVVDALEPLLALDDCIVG

[2] = target: T2, ScRIPK-KD (ScRIPK kinase domain) (Saccharum hybrid cultivar, UniProt A0ACD6BAX3); conditions: Mg2+ bound; crystallised in 0.1 M HEPES pH 7.5, 40% v/v PEG 400, 291 K; active site
T2 construct: gene NCGR_LOCUS634; kinase domain 72-378 of 425 aa; PRSF-duet vector, Ni-NTA purified from E. coli BL21(DE3); wild type autophosphorylated at T250, S253, T254; one kinase domain per asymmetric unit
T2 sequence (A0ACD6BAX3 entry or part of it): as the sequence (A0ACD6BAX3 entry or part of it K58R) above, with R53K counted along it

[3] = target: T3, ScRIPK-KD (ScRIPK kinase domain) (Saccharum hybrid cultivar, UniProt A0ACD6BAX3, S187A/T188A); conditions: crystallised in 0.1 M HEPES pH 7.5, 4.3 M sodium chloride, 291 K; active site
T3 construct: gene NCGR_LOCUS634; kinase domain 72-378 of 425 aa; PRSF-duet vector, Ni-NTA purified from E. coli BL21(DE3); wild type autophosphorylated at T250, S253, T254; one kinase domain per asymmetric unit
T3 sequence (A0ACD6BAX3 entry or part of it S187A/T188A): as the sequence (A0ACD6BAX3 entry or part of it K58R) above, with R53K, S182A, T183A counted along it

SMILES	X-ray crystal structure, 1.68 A [1]	X-ray crystal structure, 2.10 A [2]	X-ray crystal structure, 1.95 A [3]
Nc1ncnc2c1ncn2[C@@H]1O[C@H](COP(=O)(O)OP(=O)(O)OP(=O)(O)O)[C@@H](O)[C@H]1O [ATP]	the mutant protein ScRIPK-KD K124R was purified and crystallized with ATP	The ScRIPK-ATP protein complex crystal was successfully obtained in the reservoir solution	–
Nc1ncnc2c1ncn2[C@@H]1O[C@H](COP(=O)(O)OP(=O)(O)O)[C@@H](O)[C@H]1O [ADP]	–	–	In the ScRIPK-KD S253A|T254A mutant structure, Y169 and E170–M172 formed a deep cavity
